Active and inactive are the calls of the source.
Key:
H9c2 [1] = assay: Upregulation of ER-alpha expression in rat H9c2 cells after 24 hrs by western blot analysis; format: functional, cell-based
H9c2 [2] = assay: Upregulation of ER-beta expression in rat H9c2 cells after 24 hrs by western blot analysis; format: functional, cell-based
H9c2 [3] = assay: Inhibition of H2O2-induced loss of cell viability in rat H9c2 cells at 5,10 and 20 uM after 24 hrs by MTT assay; format: functional, cell-based
H9c2 [4] = assay: Inhibition of H2O2-induced apoptosis in rat H9c2 cells after 24 hrs by AO/EB staining based fluorescence microscopic analysis; format: functional, cell-based
H9c2 [5] = assay: Inhibition of H2O2-induced loss of cell viability in rat H9c2 cells at 5,10 and 20 uM after 24 hrs by MTT assay in presence of ER inhibitor ICI182780; format: functional, cell-based
H9c2 [6] = assay: Inhibition of H2O2-induced apoptosis in rat H9c2 cells at 5,10 and 20 uM after 24 hrs by AO/EB staining based fluorescence microscopic analysis in presence of ER inhibitor ICI182780; format: functional, cell-based
[7] = biological target: T1, Estrogen receptor (Rattus norvegicus) (UniProt P06211+Q62986); assay: Activation of ER-alpha/beta in rat H9c2 cells assessed as increase in phosphorylated Akt level after 24 hrs by western blot analysis; format: cell-based
[8] = biological target: T1, Estrogen receptor (Rattus norvegicus); assay: Activation of ER-alpha/beta in rat H9c2 cells assessed as phosphorylated Akt level at 5,10 and 20 uM after 24 hrs by western blot analysis in presence of ER inhibitor ICI182780; format: cell-based

COc1ccc(-c2coc3cc(O)ccc3c2=O)cc1O
inactive: inhibition (H9c2 [5]) | inhibition (H9c2 [6]) | Activity [8]
active: Activity (H9c2 [1]) Dose-dependent effect | Activity (H9c2 [2]) Dose-dependent effect | inhibition (H9c2 [3]) | inhibition (H9c2 [4]) Dose-dependent effect | Activity [7]

From ChEMBL document CHEMBL3739341, “Calycosin inhibits oxidative stress-induced cardiomyocyte apoptosis via activating estrogen receptor-α/β” (Bioorg Med Chem Lett, 2016)
